Experimental data taken from PubChem BioAssay (NCI).
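Values below derive from 48-hour exposures of cells grown in 96-well plates, with endpoints linearly interpolated between the two concentrations bracketing the appropriate inhibition level. Definition used: TGI = concentration required for complete inhibition of growth.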

Columns and labels:
Assay in all cases: NCI tumour cell line growth inhibition, 48 h
[1] = test system: SW-620 colon
[2] = test system: OVCAR-5 ovarian
[3] = test system: KM12 colon
[4] = test system: UO-31 renal
[5] = test system: NCI-H522 lung
[6] = test system: OVCAR-4 ovarian
[7] = test system: SNB-19 CNS
[8] = test system: NCI-H23 lung
[9] = test system: A498 renal
[10] = test system: SF-268 CNS
[11] = test system: ACHN renal
[12] = test system: MALME-3M melanoma
[13] = test system: PC-3 prostate
[14] = test system: SF-539 CNS
[15] = test system: MDA-MB-435
[16] = test system: K-562 leukemia
[17] = test system: IGROV1 ovarian
[18] = test system: SK-MEL-5 melanoma
[19] = test system: UACC-62 melanoma
[20] = test system: CCRF-CEM leukemia
[21] = test system: BT-549 breast
[22] = test system: M14 melanoma
[23] = test system: HL-60(TB) leukemia
[24] = test system: OVCAR-8 ovarian
[25] = test system: MDA-N
[26] = test system: SK-OV-3 ovarian
[27] = test system: NCI/ADR-RES ovarian
[28] = test system: SNB-75 CNS
[29] = test system: SR leukemia
[30] = test system: HOP-62 NSCLC
[31] = test system: SN12C renal
[32] = test system: DU-145 prostate
[33] = test system: TK-10 renal
[34] = test system: SF-295 CNS
[35] = test system: RPMI-8226 leukemia
[36] = test system: SK-MEL-2 melanoma
[37] = test system: HOP-92 NSCLC
[38] = test system: OVCAR-3 ovarian
[39] = test system: HCT-15 colon
[40] = test system: HS 578T breast
[41] = test system: LOX IMVI melanoma
[42] = test system: MCF7 breast
[43] = test system: MOLT-4 leukemia
[44] = test system: SK-MEL-28 melanoma
[45] = test system: HT29 colon
[46] = test system: A549 NSCLC
[47] = test system: NCI-H460 lung
[48] = test system: CAKI-1 renal
[49] = test system: MDA-MB-231 breast
[50] = test system: HCC-2998 colon
[51] = test system: U251 CNS
[52] = test system: HCT-116 colon
[53] = test system: 786-0 renal
[54] = test system: T-47D breast
[55] = test system: RXF 393 renal
[56] = test system: EKVX NSCLC
[57] = test system: COLO 205 colon
[58] = test system: NCI-H226 lung

Cc1cc(C)c2c(=O)n(CN3CCC(O)(c4ccccc4)CC3)sc2n1
TGI [1]: 69.5 µM
TGI [2]: 68.7 µM
TGI [3]: > 100 µM
TGI [4]: 33.8 µM
TGI [5]: 24.2 µM
TGI [6]: 81.4 µM
TGI [7]: > 100 µM
TGI [8]: 83.1 µM
TGI [9]: > 100 µM
TGI [10]: > 100 µM
TGI [11]: 37.9 µM
TGI [12]: 32.9 µM
TGI [13]: > 100 µM
TGI [14]: 58.3 µM
TGI [15]: 48.7 µM
TGI [16]: > 100 µM
TGI [17]: > 100 µM
TGI [18]: > 100 µM
TGI [19]: > 100 µM
TGI [20]: > 100 µM
TGI [21]: > 100 µM
TGI [22]: > 100 µM
TGI [23]: 62.3 µM
TGI [24]: > 100 µM
TGI [25]: 38.3 µM
TGI [26]: > 100 µM
TGI [27]: > 100 µM
TGI [28]: 50.8 µM
TGI [29]: 82.8 µM
TGI [30]: > 100 µM
TGI [31]: 86.2 µM
TGI [32]: > 100 µM
TGI [33]: 29.8 µM
TGI [34]: > 100 µM
TGI [35]: > 100 µM
TGI [36]: > 100 µM
TGI [37]: > 100 µM
TGI [38]: > 100 µM
TGI [39]: > 100 µM
TGI [40]: > 100 µM
TGI [41]: > 100 µM
TGI [42]: > 100 µM
TGI [43]: 76.3 µM
TGI [44]: > 100 µM
TGI [45]: 98.9 µM
TGI [46]: > 100 µM
TGI [47]: 95.3 µM
TGI [48]: > 100 µM
TGI [49]: > 100 µM
TGI [50]: 57.3 µM
TGI [51]: > 100 µM
TGI [52]: > 100 µM
TGI [53]: 30.8 µM
TGI [54]: > 100 µM
TGI [55]: 37.7 µM
TGI [56]: 81.7 µM
TGI [57]: > 100 µM
TGI [58]: > 100 µM
